Assay results taken from patent publication US4436751A, “Nitrobenzyl monates antibacterial compounds” (Beecham Group Limited, priority 1980, dated 1984).
Values after ≈ are worked out from the molar mass of the structure shown. Like-named read-outs stand apart in the source and are kept apart here.

Tests used:
Type in all cases: cell-based
M. suipneumoniae LABER = assay: Anti-mycoplasmal MIC in vitro, Friis broth agarose (Table 1); conditions: Mesomycoplasma hyopneumoniae, 144 h
M. dispar RCTC 10125 = assay: as above; conditions: 144 h
M. suipneumoniae Str. 11 = assay: as above; conditions: Mesomycoplasma hyopneumoniae, STR.11, 144 h
M. hyorhinis ATCC 23234 = assay: as above; conditions: Mesomycoplasma hyorhinis, ATCC23234, 144 h
M. suipneumoniae OCD 1 = assay: as above; conditions: Mesomycoplasma hyopneumoniae, OCD1, 144 h
M. suipneumoniae NB12 = assay: as above; conditions: Mesomycoplasma hyopneumoniae, NB12, 144 h
M. suipneumoniae JF 435 = assay: as above; conditions: Mesomycoplasma hyopneumoniae, JF435, 144 h
Staph. aureus Oxford = assay: Human bacteria MIC, nutrient agar with chocolated horse blood (Table 3); conditions: Staphylococcus aureus, 18 h
Description: (§1) The values were determined by serial dilutions in nutrient agar with 5% chocolated horse blood after incubations for 18 hours at 37° C.

E. Coli NCTC 10418 = assay: as above; conditions: Escherichia coli, NCTC10418, 18 h
Description: as §1

Staph. aureus W2827 = assay: as above; conditions: Staphylococcus aureus, W2827, 18 h
Description: as §1

[1] = tested on: Haemophilus influenzae Q1; assay: as above
Description: as §1

[2] = tested on: Corynebacterium xerosis 9755; assay: as above; conditions: Corynebacterium xerosis, 9755, 18 h
Description: as §1

Bacillus subtilis 6633 = assay: as above; conditions: Bacillus subtilis, 6633, 18 h
Description: as §1

P. mirabilis 889 = assay: as above; conditions: Proteus mirabilis, 889, 18 h
Description: as §1

[3] = tested on: Strep. pyogenes R80/421-A; assay: as above; conditions: Streptococcus pyogenes
Description: as §1

K. aerogenes A = assay: as above; conditions: Klebsiella aerogenes, 18 h
Description: as §1

Strep. faecalis 1 = assay: as above
Description: as §1

Sarcina lutea 8340 = assay: as above; conditions: Micrococcus luteus, 8340, 18 h
Description: as §1

[4] = tested on: Ps. aeruginosa NCTC 10662; assay: as above; conditions: Pseudomonas aeruginosa, NCTC10662, 18 h
Description: as §1

Staph. aureus Russell = assay: as above; conditions: Staphylococcus aureus, 18 h
Description: as §1

[5] = tested on: Pasteurella multocida 1633; assay: as above
Description: as §1

[6] = tested on: M. suipneumoniae ATCC 25095; assay: Anti-mycoplasmal MIC in vitro, Friis broth agarose (Table 1); conditions: Mesomycoplasma hyopneumoniae, ATCC25095, 144 h
M. suipneumoniae HR(2) = assay: as above; conditions: Mesomycoplasma hyopneumoniae, 144 h
M. gallisepticum S6 = assay: as above; conditions: Mycoplasmoides gallisepticum, S6, 144 h
[7] = tested on: M. hyosynoviae ATOC 25591; assay: as above; conditions: 144 h
[8] = tested on: M. suipneumoniae J2206/183b; assay: as above; conditions: Mesomycoplasma hyopneumoniae, J2206/183B, 144 h
M. suipneumoniae MS 16 = assay: as above; conditions: Mesomycoplasma hyopneumoniae, MS16, 144 h
M. hyorhinis ATCC 25021 = assay: as above; conditions: Mesomycoplasma hyorhinis, ATCC25021, 144 h

Row | Compound | MIC (M. suipneumoniae LABER) [mg/L] | MIC (M. dispar RCTC 10125) [mg/L] | MIC (M. suipneumoniae Str. 11) [mg/L] | MIC (M. hyorhinis ATCC 23234) [mg/L] | MIC (M. suipneumoniae OCD 1) [mg/L] | MIC (M. suipneumoniae NB12) [mg/L] | MIC (M. suipneumoniae JF 435) [mg/L] | MIC (Staph. aureus Oxford) [mg/L] | MIC (E. Coli NCTC 10418) [mg/L] | MIC (Staph. aureus W2827) [mg/L] | MIC [2] [mg/L] | MIC (Bacillus subtilis 6633) [mg/L] | MIC (P. mirabilis 889) [mg/L] | MIC (K. aerogenes A) [mg/L] | MIC (Sarcina lutea 8340) [mg/L] | MIC [4] [mg/L] | MIC (Staph. aureus Russell) [mg/L] | MIC [6] [mg/L] | MIC (M. suipneumoniae HR(2)) [mg/L] | MIC (M. gallisepticum S6) [mg/L] | also measured
1 | C/C(=C\C(=O)OCc1ccc([N+](=O)[O-])cc1[N+](=O)[O-])CC1OCC(CC2OC2C(C)C(C)O)C(O)C1O (centres unmarked) [Example 10, 2,4-dinitrobenzyl monate A] | 0.5 (≈ 0.953 µM) | 0.25 (≈ 0.477 µM) | 0.5 (≈ 0.953 µM) | 0.5 (≈ 0.953 µM) | 1 (≈ 1.91 µM) | 1 (≈ 1.91 µM) | 1 (≈ 1.91 µM) | 1 (≈ 1.91 µM) | > 100 | 2.5 (≈ 4.77 µM) | > 100 | 0.25 (≈ 0.477 µM) | > 100 | > 100 | > 100 | > 100 | 2.5 (≈ 4.77 µM) | 0.5 (≈ 0.953 µM) | 1 (≈ 1.91 µM) | 5 (≈ 9.53 µM) | MIC ([1]; Haemophilus influenzae, Q1, 18 h): 0.5 mg/L (≈ 0.953 µM); MIC ([3]; R80/421A, 18 h): 0.25 mg/L (≈ 0.477 µM); MIC (Strep. faecalis 1; Enterococcus faecalis, 1, 18 h): > 100 mg/L; MIC ([5]; Pasteurella multocida, 1633, 18 h): 2.5 mg/L (≈ 4.77 µM); MIC [7]: 0.25 mg/L (≈ 0.477 µM); MIC [8]: 1 mg/L (≈ 1.91 µM); MIC (M. suipneumoniae MS 16): 0.5 mg/L (≈ 0.953 µM); MIC (M. hyorhinis ATCC 25021): 0.5 mg/L (≈ 0.953 µM)
2 | C/C(=C\C(=O)OCc1ccc([N+](=O)[O-])cc1Cl)CC1OCC(CC2OC2C(C)C(C)O)C(O)C1O (centres unmarked) [Example 11, 2-chloro-4-nitrobenzyl monate A] | 1 (≈ 1.95 µM) | 0.5 (≈ 0.973 µM) | 1 (≈ 1.95 µM) | 0.5 (≈ 0.973 µM) | 2.5 (≈ 4.86 µM) | 1 (≈ 1.95 µM) | 2.5 (≈ 4.86 µM) | 1 (≈ 1.95 µM) | > 100 | 1 (≈ 1.95 µM) | > 100 | 0.5 (≈ 0.973 µM) | > 100 | > 100 | > 100 | > 100 | 1 (≈ 1.95 µM) | 1 (≈ 1.95 µM) | 2.5 (≈ 4.86 µM) | 2.5 (≈ 4.86 µM) | MIC ([1]; Haemophilus influenzae Q1, nutrient agar 5% chocolated horse blood, 18 hours 37° C., read-out: MIC): 2.5 mg/L (≈ 4.86 µM); MIC ([3]; Strep. pyogenes R80/421-A, nutrient agar 5% chocolated horse blood, 18 hours 37° C., read-out: MIC): 1 mg/L (≈ 1.95 µM); MIC (Strep. faecalis 1; Enterococcus faecalis, Strep. faecalis 1, nutrient agar 5% chocolated horse blood, 18 hours 37° C., read-out: MIC): 50 mg/L (≈ 97.3 µM); MIC ([5]; Pasteurella multocida 1633, nutrient agar 5% chocolated horse blood, 18 hours 37° C., read-out: MIC): 5 mg/L (≈ 9.73 µM); MIC [7]: 0.1 mg/L (≈ 0.195 µM); MIC [8]: 1 mg/L (≈ 1.95 µM); MIC (M. suipneumoniae MS 16): 1 mg/L (≈ 1.95 µM); MIC (M. hyorhinis ATCC 25021): 0.5 mg/L (≈ 0.973 µM)
